Test results: US20090143283A1, “Pituitary Adenylate Cyclase Activating Peptide (PACAP) Receptor (VPAC2) Agonists and Their Pharmacological Methods of Use” (Bayer Pharmaceuticals Corporation, priority 2004, published 2009)

Molecular target: T1, VPAC1 (Homo sapiens, UniProt P32241)
T1 construct: expressed in transfected cells; host or cells: CHO
T1 sequence (P32241 31-457): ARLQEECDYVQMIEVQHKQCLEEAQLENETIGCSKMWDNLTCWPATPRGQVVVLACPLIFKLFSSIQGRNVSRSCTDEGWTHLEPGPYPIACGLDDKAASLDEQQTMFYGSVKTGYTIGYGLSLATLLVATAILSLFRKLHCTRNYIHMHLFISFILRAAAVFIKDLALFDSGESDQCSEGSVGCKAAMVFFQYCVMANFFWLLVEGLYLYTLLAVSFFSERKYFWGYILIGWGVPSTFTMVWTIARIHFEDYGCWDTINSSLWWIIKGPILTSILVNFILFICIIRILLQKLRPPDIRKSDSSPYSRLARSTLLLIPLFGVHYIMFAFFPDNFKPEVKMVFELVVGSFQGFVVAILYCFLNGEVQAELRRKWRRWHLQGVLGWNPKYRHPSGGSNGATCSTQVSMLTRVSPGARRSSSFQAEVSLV
Test: Elevation of cAMP, agonist activity on VPAC1
Type: cell-based
Details: FIG. 3
Text: The signal is detected using a scintillation counter.

PACAP-27
agonist activity on VPAC1: potent agonist
